This is an account of results in patent publication US12503473B2, “Triazolopyrimidine compounds and their use in treating cancer” (Dizal (Jiangsu) Pharmaceutical Co., Ltd., priority 2018, dated 2025).

For assay [1], the target named is T1, MCT1 (Homo sapiens, UniProt P53985).
T1 construct: a human erythroleukemia line predominantly expressing MCT1, a small amount of MCT2 and no MCT4; host or cells: K562
T1 sequence (P53985 1-500): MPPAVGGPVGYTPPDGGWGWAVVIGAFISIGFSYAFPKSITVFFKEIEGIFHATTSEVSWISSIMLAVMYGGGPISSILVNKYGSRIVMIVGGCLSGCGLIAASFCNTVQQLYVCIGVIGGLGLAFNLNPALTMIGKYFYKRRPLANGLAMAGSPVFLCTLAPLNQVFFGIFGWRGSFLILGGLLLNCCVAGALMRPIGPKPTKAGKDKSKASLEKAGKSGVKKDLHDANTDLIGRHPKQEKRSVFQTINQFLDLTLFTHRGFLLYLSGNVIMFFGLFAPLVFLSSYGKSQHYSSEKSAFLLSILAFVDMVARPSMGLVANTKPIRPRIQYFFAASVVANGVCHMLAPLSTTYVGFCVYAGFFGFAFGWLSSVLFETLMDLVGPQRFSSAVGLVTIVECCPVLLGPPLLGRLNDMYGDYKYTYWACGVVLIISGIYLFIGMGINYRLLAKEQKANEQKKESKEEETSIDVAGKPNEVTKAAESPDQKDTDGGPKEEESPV
Description: Assay (c): FLIPR BCECF lactate influx in K562 cells. The class given is cell-based. The conditions noted are these: mean of at least three repeats, read-out: MCT1 FLIPR pIC50 (K562) (converted).
Description: Cells were loaded with the pH sensitive dye BCECFAM(Invitrogen #B11150) before being washed to remove excess dye and seeded into the assay plates—directly onto the test compound—at a density of 15,000 cells/well (NCI—H358) or 30,000 cells/well (K562), in 30 μl HBSS with 1 mM [final] […] Assay plates were lidded and spun in a plate centrifuge at 170 g for 1 minute. Plates were then wrapped in foil and incubated in the dark for 1 hour at room temperature.
Following incubation with test compound, 10 μl of 25 mM Sodium-L-Lactate (Sigma #L7022) made up in HBSS with 1 mM [final] […] This addition was performed directly on the FLIPR Tetra platform (Molecular Devices) as part of a real-time kinetic read protocol. […] A percentage change from base-line was calculated for each test well and values normalised to control wells—treated with either DMSO (maximum assay signal) or chemistry related to that described in this patent (minimum assay signal)—before fitting concentration response curves to determine an IC50 value.

The target of assay [2] is T2, MCT4 (Homo sapiens, UniProt O15427).
T2 sequence (O15427 1-465): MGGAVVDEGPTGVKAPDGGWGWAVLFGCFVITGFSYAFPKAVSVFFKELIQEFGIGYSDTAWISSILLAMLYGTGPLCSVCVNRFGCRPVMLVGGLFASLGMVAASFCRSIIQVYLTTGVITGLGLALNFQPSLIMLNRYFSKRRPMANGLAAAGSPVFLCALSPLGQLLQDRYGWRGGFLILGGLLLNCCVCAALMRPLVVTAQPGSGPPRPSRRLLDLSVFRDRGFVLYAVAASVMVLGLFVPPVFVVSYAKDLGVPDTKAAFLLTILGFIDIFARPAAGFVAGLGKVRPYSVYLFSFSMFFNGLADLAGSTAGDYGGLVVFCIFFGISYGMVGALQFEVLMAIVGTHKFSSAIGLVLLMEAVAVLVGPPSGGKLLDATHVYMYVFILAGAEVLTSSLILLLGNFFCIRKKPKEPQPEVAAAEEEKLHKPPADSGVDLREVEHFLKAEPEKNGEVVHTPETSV
The experiment in a line: cell-based.

Assay [3] has as its target T2, MCT4. Description: Assay (d): FLIPR BCECF lactate influx in INS-1 MCT4 cells. Format: cell-based, rat. Also noted: expressed in transfected cells. The conditions noted are these: INS-1 cells stably expressing human MCT4; mean of at least three repeats; read-out: MCT4 FLIPR pIC50 (INS-1) (converted). The protocol:
INS-1 MCT4 cells were generated through transfection of the parental cell background with the following DNA sequence, inserted into a pcDNA3.1 (ThermoFisher #V79020) mammalian expression vector:
The resultant cell pool was continually cultured at 37° C. and 5% CO2 under antibiotic selection in RPMI (Sigma #R0883) medium containing 1% L glutamine (Sigma #G7513), 10% FBS (Sigma #F7524), 10 mM [final] […] An individual clone was selected and expanded before being cryopreserved in a number of individual vials for continued use. Prior to testing in the biological assay, an individual INS-1 MCT4 cryovial was defrosted and continually passaged over a number of weeks—in the Geneticin selection media described previously—to obtain the requesite cell number.

In assay [4] the target is T2, MCT4. Description: Assay (a): lactate efflux from SK-Br-3 cells (lactate in media, 4 h). The note with it: mean of at least three repeats (Example 32, marked *, two repeats), read-out: MCT4 lactate efflux pIC50 (SKBR3) (converted). Format: cell-based. Also noted: a natively glycolytic human breast adenocarcinoma line predominantly expressing MCT4; host or cells: SK-Br-3. As for the experimental part:
Assay plates were lidded and incubated for 4 hours at 37° C. and 5% CO2.

Some results are limits rather than exact numbers.

On to `Cc1nc2nc(C)c(O[C@@H]3CCN(c4cnc(-c5ccc([C@@H](C)N6CCOCC6)cc5)cn4)C3)c(C)n2n1` (single isomer, unassigned) [Example 86], for which the IC50 was above 25100 nM in assay [1], 12.6 nM in assay [2], 3.16 nM in assay [3] and 2.51 nM in assay [4].

On to `Cc1nc2nc(C)c(O[C@@H]3CCN(c4cnc(-c5ccc(C(C)N6CCOCC6)cc5)cn4)C3)c(C)n2n1` (single isomer, unassigned) [Example 87], for which the IC50 is above 25100 nM in assay [1], 12.6 nM in assay [2], 3.98 nM in assay [3] and 1.26 nM in assay [4].

For the compound `Cc1nc2nc(C)c(C[C@@H]3CCN(c4cnc(-c5ccc(CN6CCN(C)C[C@H]6C)cc5)cn4)C3)c(C)n2n1` [Example 34, 6-(((R)-1-(5-(4-(((R)-2,4-dimethylpiperazin-1-yl)methyl)phenyl)pyrazin-2-yl)pyrrolidin-3-yl)methyl)-2,5,7-trimethyl-[1,2,4]triazolo[1,5-a]pyrimidine], the IC50 in assay [1] was above 25100 nM; in assay [2] it was 63.1 nM; in assay [4], 1.58 nM.

For the compound `Cc1nc2nc(C)c(C[C@@H]3CCN(c4cnc(-c5ccc(CN6C[C@@H](C)N(C)C[C@H]6C)cc5)cn4)C3)c(C)n2n1` [Example 35, 2,5,7-trimethyl-6-(((R)-1-(5-(4-(((2R,5R)-2,4,5-trimethylpiperazin-1-yl)methyl)phenyl)pyrazin-2-yl)pyrrolidin-3-yl)methyl)-[1,2,4]triazolo[1,5-a]pyrimidine], the IC50 in assay [1] is above 25100 nM; in assay [2], 15.8 nM; in assay [4], 0.631 nM.

Turning to `COCCN1CCN(Cc2ccc(-c3cnc(N4CC[C@@H](Cc5c(C)nc6nc(C)nn6c5C)C4)cn3)cc2)CC1` [Example 42, (R)-6-((1-(5-(4-((4-(2-methoxyethyl)piperazin-1-yl)methyl)phenyl)pyrazin-2-yl)pyrrolidin-3-yl)methyl)-2,5,7-trimethyl-[1,2,4]triazolo[1,5-a]pyrimidine], the IC50 was above 25100 nM in assay [1], 10 nM in assay [2], 6.31 nM in assay [3] and 0.794 nM in assay [4].

Consider `Cc1nc2nc(C)c(C[C@@H]3CCN(c4cnc(-c5ccc(CN6CCN(C)C[C@@H]6C)cc5)cn4)C3)c(C)n2n1` [Example 50, 6-(((R)-1-(5-(4-(((S)-2,4-dimethylpiperazin-1-yl)methyl)phenyl)pyrazin-2-yl)pyrrolidin-3-yl)methyl)-2,5,7-trimethyl-[1,2,4]triazolo[1,5-a]pyrimidine], for which the results for the IC50 in assay [1], in assay [2] and in assay [4] were above 25100 nM, 15.8 nM and 0.501 nM, respectively.

Take `CC(=O)N1CCN(Cc2ccc(-c3cnc(N4CC[C@@H](Cc5c(C)nc6nc(C)nn6c5C)C4)cn3)cc2)CC1` [Example 58, (R)-1-(4-(4-(5-(3-((2,5,7-trimethyl-[1,2,4]triazolo[1,5-a]pyrimidin-6-yl)methyl)pyrrolidin-1-yl)pyrazin-2-yl)benzyl)piperazin-1-yl)ethanone]: the IC50 in assay [1] is above 25100 nM; in assay [2], 12.6 nM; in assay [4], 0.631 nM.

Take `Cc1nc2nc(C)c(C[C@@H]3CCN(c4cnc(-c5ccc(CN6CCOCC6)cc5)cn4)C3)c(C)n2n1` [Example 60, (R)-4-(4-(5-(3-((2,5,7-trimethyl-[1,2,4]triazolo[1,5-a]pyrimidin-6-yl)methyl)pyrrolidin-1-yl)pyrazin-2-yl)benzyl)morpholine]: the IC50 in assay [1] is 12600 nM; in assay [2], 7.94 nM; in assay [3], 5.01 nM; in assay [4], 0.398 nM.

Turning to `Cc1nc2nc(C)c(O[C@@H]3CCN(c4ccc(-c5ccc(CN6CCCCC6)nn5)cc4)C3)c(C)n2n1` [Example 64, (R)-2,5,7-trimethyl-6-((1-(4-(6-(piperidin-1-ylmethyl)pyridazin-3-yl)phenyl)pyrrolidin-3-yl)oxy)-[1,2,4]triazolo[1,5-a]pyrimidine], the IC50 is above 25100 nM in assay [1], 50.1 nM in assay [2], 15.8 nM in assay [3] and 1.58 nM in assay [4].

On to `Cc1nc2nc(C)c(O[C@@H]3CCN(c4ccc(-c5ccc(CN6C7CCC6CN(C)C7)nn5)cc4)C3)c(C)n2n1` [Example 66, 2,5,7-trimethyl-6-(((3R)-1-(4-(6-((3-methyl-3,8-diazabicyclo[3.2.1]octan-8-yl)methyl)pyridazin-3-yl)phenyl)pyrrolidin-3-yl)oxy)-[1,2,4]triazolo[1,5-a]pyrimidine], for which the IC50 was above 25100 nM in assay [1], 50.1 nM in assay [2], 25.1 nM in assay [3] and 2 nM in assay [4].

For `Cc1nc2nc(C)c(O[C@@H]3CCN(c4ccc(-c5ccc(CN6CCN7CCC[C@@H]7C6)nn5)cc4)C3)c(C)n2n1` [Example 67, 6-(((R)-1-(4-(6-(((R)-hexahydropyrrolo[1,2-a]pyrazin-2(1H)-yl)methyl)pyridazin-3-yl)phenyl)pyrrolidin-3-yl)oxy)-2,5,7-trimethyl-[1,2,4]triazolo[1,5-a]pyrimidine], the IC50 in assay [1] is above 25100 nM; in assay [2], 63.1 nM; in assay [4] it was 2 nM.

As to `Cc1nc2nc(C)c(O[C@@H]3CCN(c4ccc(-c5ccc(CN6CCN7CCC[C@H]7C6)nn5)cc4)C3)c(C)n2n1` [Example 68, 6-(((R)-1-(4-(6-(((S)-hexahydropyrrolo[1,2-a]pyrazin-2(1H)-yl)methyl)pyridazin-3-yl)phenyl)pyrrolidin-3-yl)oxy)-2,5,7-trimethyl-[1,2,4]triazolo[1,5-a]pyrimidine], the figures for the IC50 in assay [1], in assay [2] and in assay [4] were above 25100 nM, 100 nM and 3.16 nM, respectively.

As to `Cc1nc2nc(C)c(O[C@@H]3CCN(c4ccc(-c5cnc(CN6CCOCC6)nc5)cc4)C3)c(C)n2n1` [Example 69, (R)-4-((5-(4-(3-((2,5,7-trimethyl-[1,2,4]triazolo[1,5-a]pyrimidin-6-yl)oxy)pyrrolidin-1-yl)phenyl)pyrimidin-2-yl)methyl)morpholine], the IC50 in assay [1] is above 25100 nM; in assay [2], 12.6 nM; in assay [3] it was 3.16 nM; in assay [4] it was 2 nM.

As for `Cc1nc2nc(C)c(O[C@@H]3CCN(c4ccc(-c5cnc(CN6CCOCC6)cn5)cc4)C3)c(C)n2n1` [Example 70, (R)-4-((5-(4-(3-((2,5,7-trimethyl-[1,2,4]triazolo[1,5-a]pyrimidin-6-yl)oxy)pyrrolidin-1-yl)phenyl)pyrazin-2-yl)methyl)morpholine], the IC50 in assay [1] was above 25100 nM; in assay [2] it was 5.01 nM; in assay [3], 1.58 nM; in assay [4] it was 0.631 nM.

For the compound `CCN1CCN(Cc2ccc(-c3ccc(N4CC[C@@H](Oc5c(C)nc6nc(C)nn6c5C)C4)cc3)nn2)CC1` [Example 72, (R)-6-((1-(4-(6-((4-ethylpiperazin-1-yl)methyl)pyridazin-3-yl)phenyl)pyrrolidin-3-yl)oxy)-2,5,7-trimethyl-[1,2,4]triazolo[1,5-a]pyrimidine], the IC50 in assay [1] is above 25100 nM; in assay [2] it was 79.4 nM; in assay [4], 2.51 nM.

As for `COCCN1CCN(Cc2ccc(-c3ccc(N4CC[C@@H](Oc5c(C)nc6nc(C)nn6c5C)C4)cc3)nn2)CC1` [Example 73, (R)-6-((1-(4-(6-((4-(2-methoxyethyl)piperazin-1-yl)methyl)pyridazin-3-yl)phenyl)pyrrolidin-3-yl)oxy)-2,5,7-trimethyl-[1,2,4]triazolo[1,5-a]pyrimidine], the IC50 was above 25100 nM in assay [1], 50.1 nM in assay [2], 31.6 nM in assay [3] and 3.16 nM in assay [4].
